Like-named read-outs stand apart in the source and are kept apart here.
Legend:
[1] = test system: recognition deficits induced by cyproheptadine; design: method as in PMID 23717153; conditions: rats; cited from earlier work
[2] = pharmacokinetics of 16 ginsenosides in rat plasma after oral administration of RGS; format: in vivo
Description: The SD rats were randomly allocated into two groups, i.e., normal group and SA-treated group.
Blood samples were collected from the postocular vein at 0.083, 0.25, 0.5, 1, 2, 3, 4, 6, 8, 12 and 24 h after SA injection. Blood sample immediately was centrifuged at 18,000 rpm for 10 min. Plasma was withdrawn (0.15 mL) and diluted with 0.3 mL of acetonitrile and 20 µL of the IS (6 µg/mL). After 30 min, the mixture was clarified by centrifugation at 18,000 rpm for 10 min at 4 °C. The supernatant was dried under a stream of N2, and the residue was dissolved in 0.1 mL of methanol and stored at −20 °C for further analysis.
The UPLC-MS/MS system (Waters Xeve TQ, Waters, Cork, Ireland) with a column C18 (ACQUITY, 1.7 μm, 2.1 × 50 mm, Waters, Cork, Ireland) were adopted at 35 °C. Water (A) and acetonitrile (B) were used as mobile phases at a flow rate of 0.4 mL/min. The treatment of elution was performed according to following pattern: 10% B for 0–5.0 min; 10→15% B for 5.0–8.0 min; 15→25% B for 8.0–12.0 min; 25→40% for 12.0–20.0 min; 40→50% B for 20.0–25.0 min; 50→65% B for 25.0–30.0 min. With regard to mass detection, the negative mode of electrospray ionization source was adopted. The optimized parameters of multiple reactions monitoring (MRM) system including collision energy, Q1 Pre Bias, Q3 Pre Bias, collision energy and MRM transition of the 16 ginsenosides are shown in Table 1.
Based on a non-compartmental method, WinNonlin software (Phoenix, version 6.1) was employed to calculate the pharmacokinetic parameters. The statistical difference between groups was analyzed by One-Way ANOVA analysis using SPSS Version 17.0. (SPSS Inc., Chicago, IL, USA). The difference between groups was regarded significant when p < 0.05. We first normalized the pharmacokinetic data and then visualized them based on principal component analysis (PCA).

[3] = test system: scopolamine-induced learning ability impairment; design: method as in PMID 24503167; conditions: rats; cited from earlier work
[4] = SD, rat, in vivo, po, 100 mg/kg

| Compound | effect on recognition deficits induced by cyproheptadine [1] | C Max [2, 4] | MRT [2, 4] | T1/2 [2, 4] | Cmax ([2]; SD, rat, in vivo, po, 100 mg/kg, C Max) | MRT ([2]; SD, rat, in vivo, po, 100 mg/kg, MRT) | half-life ([2]; SD, rat, in vivo, po, 100 mg/kg, T1/2) | Tmax ([2]; SD, rat, in vivo, po, 100 mg/kg, T Max) | effect on scopolamine-induced learning ability impairment [3] | Cmax ([2]; SD, rat, plasma, po, 100 mg/kg, model (scopolamine 1 mg/kg i.p.-treated) rats, oral RGS single dose 100 mg/kg, plasma, mean ± S.D., n = 5, read-out: C Max) | MRT ([2]; SD, rat, plasma, po, 100 mg/kg, model (scopolamine 1 mg/kg i.p.-treated) rats, oral RGS single dose 100 mg/kg, plasma, mean ± S.D., n = 5, read-out: MRT) | half-life ([2]; SD, rat, plasma, po, 100 mg/kg, model (scopolamine 1 mg/kg i.p.-treated) rats, oral RGS single dose 100 mg/kg, plasma, mean ± S.D., n = 5, read-out: T1/2 (converted)) | Tmax ([2]; SD, rat, plasma, po, 100 mg/kg, model (scopolamine 1 mg/kg i.p.-treated) rats, oral RGS single dose 100 mg/kg, plasma, mean ± S.D., n = 5, read-out: T Max) | Cmax ([2]; SD, rat, plasma, po, 100 mg/kg, normal rats, oral RGS single dose 100 mg/kg, plasma, mean ± S.D., n = 5, read-out: C Max) | MRT ([2]; SD, rat, plasma, po, 100 mg/kg, normal rats, oral RGS single dose 100 mg/kg, plasma, mean ± S.D., n = 5, read-out: MRT) | half-life ([2]; SD, rat, plasma, po, 100 mg/kg, normal rats, oral RGS single dose 100 mg/kg, plasma, mean ± S.D., n = 5, read-out: T1/2 (converted)) | Tmax ([2]; SD, rat, plasma, po, 100 mg/kg, normal rats, oral RGS single dose 100 mg/kg, plasma, mean ± S.D., n = 5, read-out: T Max) | AUC 0-t ([2]; model (scopolamine 1 mg/kg i.p.-treated) rats, oral RGS single dose 100 mg/kg, plasma, mean ± S.D., n = 5) | AUC 0-t ([2]; normal rats, oral RGS single dose 100 mg/kg, plasma, mean ± S.D., n = 5) |
| --- | --- | --- | --- | --- | --- | --- | --- | --- | --- | --- | --- | --- | --- | --- | --- | --- | --- | --- | --- |
| CC(C)=CCC[C@](C)(O)[C@H]1CC[C@]2(C)[C@@H]1[C@H](O)C[C@@H]1[C@@]3(C)CC[C@H](O)C(C)(C)[C@@H]3[C@@H](O[C@@H]3O[C@H](CO)[C@@H](O)[C@H](O)[C@H]3O[C@@H]3O[C@@H](C)[C@H](O)[C@@H](O)[C@H]3O)C[C@]12C [Rg2, Ginsenoside Rg2] | improves | 26.3 ± 4.8 ng/g | 26.5 ± 3.6 h | 18.9 ± 1.6 h | 15.3 ± 5.6 ng/g | 22.3 ± 1.4 h | 19.8 ± 2.5 h | 1.5 ± 0.8 h |  |  |  |  |  |  |  |  |  |  |  |
| CC(C)=CCCC(C)(OC1OC(COC2OC(CO)C(O)C(O)C2O)C(O)C(O)C1O)C1CCC2(C)C1C(O)CC1C3(C)CCC(OC4OC(CO)C(O)C(O)C4OC4OC(CO)C(O)C(O)C4O)C(C)(C)C3CCC12C (stereo not shown) [Rb1] |  |  |  |  |  |  |  |  | do not | 34.8 ± 2.7 ng/g | 6.5 ± 1.5 h | 4.8 ± 1.1 h | 4.1 ± 0.8 h | 35.2 ± 4.9 ng/g | 6.2 ± 1.8 h | 4.3 ± 0.8 h | 4.6 ± 1.1 h | 298.9 ± 11.7 ng·h/g | 255.6 ± 7.4 ng·h/g |

From PMC6600263, “Neuroprotective Effects of Red Ginseng Saponins in Scopolamine-Treated Rats and Activity Screening Based on Pharmacokinetics” (Molecules, 2019)
